Data from US7205329B2, “Modulators of CRTH2 activity” (Microbia, Inc., priority 2003, dated 2007).

Assays:
neutrophils = assay: CD11b expression assay, neutrophil control for CRTH2 agonist activity; format: cell-based, human; details: leukocytes incubated with test compound 10 min at room temperature; flow cytometry
Description: CRTH2 agonists increase the expression of CD11b on eosinophils. […] They do, however, express receptors for other lipid mediators, including 5-oxo-6,8,11,14-eicosatetraenoic acid (5-oxo-ETE), leukotriene B4 (LTB4), and platelet activating factor. Therefore, any increased expression of CD11b by neutrophils is likely to be caused by an activity other than activation of CRTH2. Accordingly, preferred compounds increase CD11b expression on eosinophils, but not on neutrophils.
The potential CRTH2 agonist activity of certain compounds was tested using a CD11b expression assay using essentially the method described by Monneret et al. (J Pharmacol Exp Ther 304:349–55, 2003), and the results of this analysis are presented in FIG. 1 where the results of two separate experiments are reported.
Briefly, leukocytes (0.5 ml; 10^6/ml cells) in PBS containing 0.9 mM CaCl2 and 0.5 mM MgCl2) were incubated with a test compound at room temperature for 10 min. The incubations were terminated by the addition of ice-cold FACSFlow (BD Biosciences; Cat# 342003) and centrifugation (400 g for 5 min at 4° C.). […] The distribution of fluorescence intensities among 60,000 cells was measured by flow cytometry. Eosinophils were gated out on the basis of their granularity (high side scatter) and labeling with VLA-4 (PE fluorescence). CD11b was then measured in the eosinophil region on the basis of fluorescence due to FITC. […]

CCR3 = details: Stubbs et al. 2002, J Biol Chem 277:26012–26020; cited from earlier work

| Compound | expression of CD11b on neutrophils (neutrophils) | expression of CCR3, the receptor for eotaxin (CCR3) |
| --- | --- | --- |
| CCCCCC=CCC=CCC=CC=CC(=O)CCCC(=O)O [5-oxo-ETE, 5-oxo-6,8,11,14-eicosatetraenoic acid] | increased expression of CD11b on neutrophils | – |
| COc1ccc2c(c1)c(CC(=O)O)c(C)n2C(=O)c1ccc(Cl)cc1 [indomethacin] | – | reduces expression of CCR3 |
